The text below walks through data of patent US4410537A, “Pharmaceutical ethers” (Burroughts Wellcome Co., priority 1979, dated 1983).

The test system of data set [1] is anaesthetized rats. Put plainly: Cardiovascular effects in anaesthetized rats. The format is in vivo, rat. How it is done: Male Wistar rats weighing between 250-350 g were used. Anaesthesia was induced with 3-5% halothane in oxygen and maintained with a mixture of chloralose (60 mg/kg i.v.) and pentobarbitone (20 mg/kg i.v.). A femoral vein was cannulated for the administration of drugs and the ipsilateral femoral artery for measuring arterial blood pressure; heart rate was derived from the femoral pulse by a cardiotachometer. Body temperature was maintained at 38° C.
Five test rats were each given a series of increasing doses of compound (Ia) as a solution in 10%-saturated sodium bicarbonate (saturated sodium bicarbonate solution diluted 1:9). Sufficient time was allowed between doses for the variables to return either to the pre-dose level or to a steady state if full recovery was not attained. Measurements were made 2 mins. after dose or at maximum effect.
Control rats (3) were given a series of 0.2 ml. injections of the sodium bicarbonate vehicle (up to 15 injections) to assess any effect of sodium bicarbonate and of increasing extracellular fluid volume on blood pressure and heart rate.

The subject of data set [2] is haemoglobin. Put plainly: Effect on the oxygen-dissociation curve of whole rat blood in vitro. The format is cell-based. The method, then: (§1) Compound (Ia) was dissolved in isotonic saline containing sodium bicarbonate 25 mM. […] The mixtures were incubated (30 mins, 37° C.) and the oxygen-dissociation curve for each then measured using a whole-blood spectrophotometer (Hem-O-Scan, Trade Name).
Blood (6.5 ml) from an adult albino rat, exsanguinated via the abdominal aorta under ether anaesthesia, was mixed with acid-citratedextrose anticoagulant (1.5 ml). […] Both samples were incubated (30 mins, 37° C.) and the oxygen-dissociation curve of each measured as in (A).

Data set [3] deals with haemoglobin. Put plainly: Effect on the oxygen-dissociation curve of whole rat blood in vivo. As to conditions: for Mean p50: 1 hour, rat. How it is done:
as §1
Female albino rats (100-120 g) were fasted for 24 hrs with water available ad lib. Compound (Ia) was dissolved in isotonic saline containing sodium bicarbonate 25 mM and administered to two rats orally (500 mg/kg) and to two rats intravenously (100 mg/kg): appropriate vehicle controls were administered simultaneously to control animals. After 1 hour all animals were exsanguinated via the abdominal aorta under chloroform anaesthesia: 2.5 ml of blood from each was mixed with disodium edetate (anticoagulant) and the oxygen-dissociation curve of each sample measured as in (A).

Data set [4] deals with whole homozygous human sickle-cell blood. The data set is described as follows: Effect on sickling in vitro of whole homozygous human sickle-cell blood. Format: cell-based. As to conditions: 3.0 mM, 60 mins, oxygen tension about 28 mm Hg; about 50% sickled at start; controls nearly 70%.
Data set [5] deals with haemoglobin. Put plainly: Effect on the oxygen-dissociation curve of whole homozygous human sickle-cell blood in vitro. The format is cell-based. How it is done: Compound (Ia) was dissolved in isotonic saline containing sodium bicarbonate 25 mM. […]
Homozygous human sickle-cell blood (4 vols) was mixed with acid-citrate-dextrose anticoagulant (1 vol) and a portion of the mixture set aside as a control.

Data set [6] has as its system haemoglobin. Put plainly: Effect on the oxygen-dissociation curve of whole normal human blood in vitro. The format is cell-based. As to conditions: for Mean p50: normal human blood, 30 mins, 37° C., control 26.0. How it is done: as §1
A short description of data set [7]: Acute oral toxicity in mice. As to conditions: mouse, in vivo, solution in sodium bicarbonate-saline.

As usually defined, the LD50 is the dose expected to kill half of the subjects tested. Lower therefore signals a more toxic substance. For `O=Cc1c(O)cccc1OCCCCC(=O)O` [Example 1, 5-(2-formyl-3-hydroxyphenoxy)pentanoic acid], the “change in blood pressure” value in data set [1] (32-128 mg/kg i.v., anaesthetized rats) is listed as “Significant dose-dependent falls in pressure”. Also, the “change in heart rate” value in data set [1] (after the 64 mg/kg dose, three rats, not statistically significant) is “slight tachycardia”; in data set [1] (anaesthetized rats, i.v.), “no marked changes in heart rate”. The “time of blood pressure recovery after each dose” value in data set [1] (anaesthetized rats, i.v.) was no more than 15 min. Also, the “change in systolic, diastolic or mean blood pressures” value in data set [1] (up to 16 mg/kg i.v., anaesthetized rats) is reported as “no appreciable change”. The “Mean p50” value in data set [2] (3.0 mM, rat blood in vitro, 30 mins, 37° C., control 44.5) came out at 8.2 mm. Hg; in data set [3] (100 mg/kg i.v., vehicle 43.37), 22.37 mm. Hg; in data set [3] (500 mg/kg p.o., vehicle 42.75), 10.25 mm. Hg; in data set [5] (3.0 mM, homozygous sickle-cell blood, 37° C., minimum 45 mins, three patients, control 51) it was 10 mm. Hg; in data set [6] (0.3 mM), 25.5 mm. Hg; in data set [6] (1.0 mM) it was 21.5 mm. Hg. Moreover, the “Mean p50” value in data set [6] (3.0 mM) was found to be 9.0 mm. Hg. Moreover, the “displacement of the oxygen-dissociation curve” value in data set [2] (whole rat blood in vitro) was “considerably left-displaced”; in data set [3] (whole rat blood in vivo) it was “considerable left-displacement”; in data set [5] (whole homozygous (SS genotype) human sickle-cell blood in vitro) it was “considerable left-displacement”; in data set [6] (whole normal human blood in vitro) it was “dose-related left-displacement”. The “proportion of sickled cells” value in data set [4] was “about 3%”. Further, the LD50 in data set [7] was roughly 1000 mg/kg.
